Measured values as given in patent US12202843B2, “Muscarinic receptor agonists” (Nxera Pharma UK Limited, priority 2014, dated 2025).

Legend:
Format in all cases: cell-based
[1] = target: T1, human muscarinic M1 receptor (Homo sapiens, UniProt P11229); assay: Alphascreen Surefire phospho-ERK1/2 functional assay, M1; details: for EC50: CHO cells stably expressing human M1, read-out: pEC50 M1 (converted); for % Emax cf. ACh, M1: CHO cells stably expressing human M1, relative to ACh; for Emax: CHO, read-out: % Emax cf. ACh, M1, CHO cells stably expressing human M1, relative to ACh
T1 sequence (P11229 1-460): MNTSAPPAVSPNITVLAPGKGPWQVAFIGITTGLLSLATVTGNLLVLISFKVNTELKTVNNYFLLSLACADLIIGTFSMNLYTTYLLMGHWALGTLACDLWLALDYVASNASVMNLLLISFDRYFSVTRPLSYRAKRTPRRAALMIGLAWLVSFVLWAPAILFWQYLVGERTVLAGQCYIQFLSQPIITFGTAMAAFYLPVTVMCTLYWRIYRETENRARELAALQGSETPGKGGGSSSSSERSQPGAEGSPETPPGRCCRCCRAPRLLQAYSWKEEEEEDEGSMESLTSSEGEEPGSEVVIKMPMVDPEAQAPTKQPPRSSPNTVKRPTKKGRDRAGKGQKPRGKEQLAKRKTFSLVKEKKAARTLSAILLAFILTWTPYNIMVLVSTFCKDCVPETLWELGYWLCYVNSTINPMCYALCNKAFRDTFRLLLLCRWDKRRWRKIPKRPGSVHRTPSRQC

[2] = target: T2, human muscarinic M2 receptor (Homo sapiens, UniProt P08172); assay: Alphascreen Surefire phospho-ERK1/2 functional assay, M2; details: for EC50: CHO cells stably expressing human M2, read-out: pEC50 M2 (converted); for % Emax cf. ACh, M2: CHO cells stably expressing human M2, relative to ACh; for Emax: CHO, read-out: % Emax cf. ACh, M2, CHO cells stably expressing human M2, relative to ACh
T2 sequence (P08172 1-466): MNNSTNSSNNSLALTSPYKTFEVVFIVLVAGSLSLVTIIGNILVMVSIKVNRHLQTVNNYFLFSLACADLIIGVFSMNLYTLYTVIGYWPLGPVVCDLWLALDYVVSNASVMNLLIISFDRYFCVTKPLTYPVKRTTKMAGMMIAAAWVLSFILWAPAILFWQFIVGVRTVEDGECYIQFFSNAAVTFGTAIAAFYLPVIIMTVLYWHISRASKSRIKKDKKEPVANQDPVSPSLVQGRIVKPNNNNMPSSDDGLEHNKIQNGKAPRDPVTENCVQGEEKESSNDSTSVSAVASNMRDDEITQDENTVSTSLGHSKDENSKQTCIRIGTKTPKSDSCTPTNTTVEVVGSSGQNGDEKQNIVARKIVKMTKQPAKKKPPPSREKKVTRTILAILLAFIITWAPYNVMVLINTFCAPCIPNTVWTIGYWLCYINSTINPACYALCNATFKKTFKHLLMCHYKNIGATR
Protocol: (§1) ERK1/2 phosphorylation is a downstream consequence of both Gq/11 and Gi/o protein coupled receptor activation, making it highly suitable for the assessment of M1, M3 (Gq/11 coupled) and M2, M4 receptors (Gi/o coupled), rather than using different assay formats for different receptor subtypes. CHO cells stably expressing the human muscarinic M1, M2, M3 or M4 receptor were plated (25K/well) onto 96-well tissue culture plates in MEM-alpha+10% dialysed FBS. Once adhered, cells were serum-starved overnight. Agonist stimulation was performed by the addition of 5 μL agonist to the cells for 5 min (37° C.). Media was removed and 50 μL of lysis buffer added. […] Plates were incubated for 2 h with gentle agitation in the dark and then read on a PHERAstar plate reader.
(§2) pEC50 and Emax figures were calculated from the resulting data for each receptor subtype.

[3] = target: T3, human muscarinic M4 receptor (Homo sapiens, UniProt P08173); assay: Alphascreen Surefire phospho-ERK1/2 functional assay, M4; details: for EC50: CHO cells stably expressing human M4, read-out: pEC50 M4 (converted); for % Emax cf. ACh, M4: CHO cells stably expressing human M4, relative to ACh; for Emax: CHO, read-out: % Emax cf. ACh, M4, CHO cells stably expressing human M4, relative to ACh
T3 construct: expressed in transfected cells
T3 sequence (P08173 1-479): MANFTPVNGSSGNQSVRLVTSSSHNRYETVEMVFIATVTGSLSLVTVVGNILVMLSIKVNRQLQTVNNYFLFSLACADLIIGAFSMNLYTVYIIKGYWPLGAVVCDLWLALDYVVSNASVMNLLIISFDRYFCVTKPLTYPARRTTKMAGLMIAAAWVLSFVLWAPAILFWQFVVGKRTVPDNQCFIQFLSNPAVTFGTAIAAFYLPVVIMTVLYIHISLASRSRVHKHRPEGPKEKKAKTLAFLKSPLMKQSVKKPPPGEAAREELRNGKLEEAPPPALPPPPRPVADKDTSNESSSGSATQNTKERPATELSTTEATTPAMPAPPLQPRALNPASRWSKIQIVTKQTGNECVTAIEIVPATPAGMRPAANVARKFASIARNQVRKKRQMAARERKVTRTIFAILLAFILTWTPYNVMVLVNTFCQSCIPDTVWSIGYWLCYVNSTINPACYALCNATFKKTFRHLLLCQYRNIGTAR

[4] = target: T4, human muscarinic M3 receptor (Homo sapiens, UniProt P20309); assay: Alphascreen Surefire phospho-ERK1/2 functional assay, M3; details: for EC50: CHO cells stably expressing human M3, read-out: pEC50 M3 (converted); for % Emax cf. ACh, M3: CHO cells stably expressing human M3, relative to ACh; for Emax: CHO, read-out: % Emax cf. ACh, M3, CHO cells stably expressing human M3, relative to ACh
T4 construct: expressed in transfected cells
T4 sequence (P20309 whole entry): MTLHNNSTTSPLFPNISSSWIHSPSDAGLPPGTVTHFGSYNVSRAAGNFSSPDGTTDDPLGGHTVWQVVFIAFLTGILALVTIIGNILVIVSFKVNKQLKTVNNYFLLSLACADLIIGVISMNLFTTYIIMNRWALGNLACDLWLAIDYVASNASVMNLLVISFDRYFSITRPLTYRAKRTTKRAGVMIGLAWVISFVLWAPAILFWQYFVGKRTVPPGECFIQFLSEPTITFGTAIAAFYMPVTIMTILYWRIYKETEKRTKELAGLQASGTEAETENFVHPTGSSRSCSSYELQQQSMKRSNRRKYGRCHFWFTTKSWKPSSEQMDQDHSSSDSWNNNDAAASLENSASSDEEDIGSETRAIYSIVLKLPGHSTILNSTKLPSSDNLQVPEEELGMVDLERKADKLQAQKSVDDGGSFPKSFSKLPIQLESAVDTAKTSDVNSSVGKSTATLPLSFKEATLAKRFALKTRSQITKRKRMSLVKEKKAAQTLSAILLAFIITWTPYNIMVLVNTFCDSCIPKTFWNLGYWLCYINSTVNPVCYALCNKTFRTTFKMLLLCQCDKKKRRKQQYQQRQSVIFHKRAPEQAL
Protocol: as §1, §2

| SMILES | EC50 [1] | EC50 [2] | EC50 [3] | EC50 [4] | Emax [2] | Emax [4] | Emax [3] | also measured |
| --- | --- | --- | --- | --- | --- | --- | --- | --- |
| CCOC(=O)N1C2CCCC1CC(N1CCC3(CC1)CNC(=O)C3)C2 (single isomer, unassigned) [Example 5-1 Isomer 1, ethyl 3-(3-oxo-2,8-diazaspiro[4.5]dec-8-yl)-9-azabicyclo[3.3.1]nonane-9-carboxylate] | 316 nM | 7940 nM | 251 nM | > 20000 nM | 17% | 8% |  | % Emax cf. ACh, M1 ([1]; listed as 5-1 Isomer 1): 131%; % Emax cf. ACh, M4 ([3]; listed as 5-1 Isomer 1): 25% |
| CCOC(=O)N1C2CCCC1CC(N1CCC3(CC1)CNC(=O)C3)C2 (single isomer, unassigned) [Example 5-1 Isomer 2, ethyl 3-(3-oxo-2,8-diazaspiro[4.5]dec-8-yl)-9-azabicyclo[3.3.1]nonane-9-carboxylate] | 158 nM | > 20000 nM | > 20000 nM |  |  |  |  | % Emax cf. ACh, M1 ([1]; listed as 5-1 Isomer 2): 77%; % Emax cf. ACh, M2 [2]: 14%; % Emax cf. ACh, M4 ([3]; listed as 5-1 Isomer 2): 8%; % Emax cf. ACh, M3 [4]: 6% |
| C#CCOC(=O)N1C2CCCC1CC(N1CCC3(CC1)CNC(=O)C3)C2 (single isomer, unassigned) [Example 5-2 Isomer 1, prop-2-yn-1-yl 3-(3-oxo-2,8-diazaspiro[4.5]dec-8-yl)-9-azabicyclo[3.3.1]nonane-9-carboxylate] | 100 nM | > 20000 nM | 79.4 nM | > 20000 nM | 3% |  | 37% | % Emax cf. ACh, M1 ([1]; listed as 5-2 Isomer 1): 78%; % Emax cf. ACh, M3 ([4]; listed as 5-2 Isomer 1): 9% |
| C#CCOC(=O)N1C2CCCC1CC(N1CCC3(CC1)CNC(=O)C3)C2 (single isomer, unassigned) [Example 5-2 Isomer 2, prop-2-yn-1-yl 3-(3-oxo-2,8-diazaspiro[4.5]dec-8-yl)-9-azabicyclo[3.3.1]nonane-9-carboxylate] |  |  | 63.1 nM |  |  |  |  | % Emax cf. ACh, M1 ([1]; listed as 5-2 Isomer 2): 48%; % Emax cf. ACh, M2 [2]: 3%; % Emax cf. ACh, M4 [3]: 20%; % Emax cf. ACh, M3 ([4]; listed as 5-2 Isomer 2): 4% |
| CCOC(=O)N1C2CCCC1CC(N1CCC3(CC1)CNC(=O)O3)C2 (single isomer, unassigned) [Example 5-4 Isomer 2] | 158 nM | > 20000 nM |  | > 20000 nM | 2% | 0% |  | % Emax cf. ACh, M1 [1]: 72%; % Emax cf. ACh, M4 ([3]; listed as 5-4 Isomer 2): 8% |
| COC(=O)N1CC2CC(N3CCC4(CC3)CNC(=O)C4)CC1C2 (single isomer, unassigned) [Example 6-1 Isomer 2] | 20 nM | > 20000 nM | 63.1 nM | > 20000 nM | 18% | 5% |  | % Emax cf. ACh, M1 ([1]; listed as 6-1 Isomer 2): 104%; % Emax cf. ACh, M4 [3]: 33% |
| CCOC(=O)N1CC2CC(N3CCC4(CC3)CNC(=O)O4)CC1C2 (single isomer, unassigned) [Example 6-3 Isomer 2] | 25.1 nM | 1260 nM | 39.8 nM | > 20000 nM | 24% | 48% | 81% | Emax [1]: 112% |
| CCOC(=O)N1C2CCC1CC(N1CCCC3(CC1)CNC(=O)C3)C2 (single isomer, unassigned) [Example 9-1 Isomer 2, ethyl 3-(3-oxo-2,8-diazaspiro[4.6]undec-8-yl)-8-azabicyclo[3.2.1]octane-8-carboxylate] | 3.98 nM | > 20000 nM | 2.51 nM | > 20000 nM | 12% | 22% | 60% | Emax [1]: 103% |

Further lines, with some results ahead:

| EC50 [1] | EC50 [2] | EC50 [3] | SMILES | EC50 [4] | Emax [2] | Emax [4] | Emax [3] | also measured |
| --- | --- | --- | --- | --- | --- | --- | --- | --- |
| 1.26 nM | 10 nM | 3.98 nM | CCOC(=O)N1CC2CCC1CC2N1CCC2(CC1)CNC(=O)C2 (single isomer, unassigned) [Example 3-1 Isomer 1, ethyl 5-(3-oxo-2,8-diazaspiro[4.5]dec-8-yl)-2-azabicyclo[2.2.2]octane-2-carboxylate] | > 20000 nM |  |  |  | % Emax cf. ACh, M1 ([1]; listed as 3-1 Isomer 1): 111%; % Emax cf. ACh, M2 ([2]; listed as 3-1 Isomer 1): 63%; % Emax cf. ACh, M4 ([3]; listed as 3-1 Isomer 1): 61%; % Emax cf. ACh, M3 ([4]; listed as 3-1 Isomer 1): 6% |
| 63.1 nM | > 20000 nM | 251 nM | CCOC(=O)N1CC2CCC1CC2N1CCC2(CC1)CNC(=O)C2 (single isomer, unassigned) [Example 3-1 Isomer 2, ethyl 5-(3-oxo-2,8-diazaspiro[4.5]dec-8-yl)-2-azabicyclo[2.2.2]octane-2-carboxylate] |  |  |  |  | % Emax cf. ACh, M1 ([1]; listed as 3-1 Isomer 2): 94%; % Emax cf. ACh, M2 ([2]; listed as 3-1 Isomer 2): 11%; % Emax cf. ACh, M4 ([3]; listed as 3-1 Isomer 2): 31%; % Emax cf. ACh, M3 ([4]; listed as 3-1 Isomer 2): 1% |
| 39.8 nM | > 20000 nM | 158 nM | CCOC(=O)N1CC2CCC1CC2N1CCC2(CC1)CNC(=O)C2 (single isomer, unassigned) [Example 3-1 Isomer 3, ethyl 5-(3-oxo-2,8-diazaspiro[4.5]dec-8-yl)-2-azabicyclo[2.2.2]octane-2-carboxylate] |  |  |  |  | % Emax cf. ACh, M1 ([1]; listed as 3-1 Isomer 3): 101%; % Emax cf. ACh, M2 ([2]; listed as 3-1 Isomer 3): 17%; % Emax cf. ACh, M4 ([3]; listed as 3-1 Isomer 3): 41%; % Emax cf. ACh, M3 ([4]; listed as 3-1 Isomer 3): 16% |
| 2 nM | 15.8 nM | 3.98 nM | CCOC(=O)N1CC2CC(N3CCC4(CC3)CNC(=O)C4)CC1C2 (single isomer, unassigned) [Example 6-2 Isomer 2] | > 20000 nM | 30% | 18% | 78% | Emax [1]: 118% |
